# Experimental data reported in patent US10092546B2, “Imidazole derivatives” (Hoffman-La Roche Inc., priority 2015, dated 2018).
# Assays:
# human EAAT3 = biological target: T1, human EAAT3 (Homo sapiens, UniProt P43005); assay: FLIPR Membrane Potential (FMP) assay, antagonist potency at human EAAT3; type: cell-based; conditions: HEK-293 cells stably expressing human EAAT3; L-glutamate as agonist at EC80; antagonist applied 15 min before; Kb by Cheng-Prusoff from IC50
# T1 construct: expressed in transfected cells
# T1 sequence (P43005 1-524): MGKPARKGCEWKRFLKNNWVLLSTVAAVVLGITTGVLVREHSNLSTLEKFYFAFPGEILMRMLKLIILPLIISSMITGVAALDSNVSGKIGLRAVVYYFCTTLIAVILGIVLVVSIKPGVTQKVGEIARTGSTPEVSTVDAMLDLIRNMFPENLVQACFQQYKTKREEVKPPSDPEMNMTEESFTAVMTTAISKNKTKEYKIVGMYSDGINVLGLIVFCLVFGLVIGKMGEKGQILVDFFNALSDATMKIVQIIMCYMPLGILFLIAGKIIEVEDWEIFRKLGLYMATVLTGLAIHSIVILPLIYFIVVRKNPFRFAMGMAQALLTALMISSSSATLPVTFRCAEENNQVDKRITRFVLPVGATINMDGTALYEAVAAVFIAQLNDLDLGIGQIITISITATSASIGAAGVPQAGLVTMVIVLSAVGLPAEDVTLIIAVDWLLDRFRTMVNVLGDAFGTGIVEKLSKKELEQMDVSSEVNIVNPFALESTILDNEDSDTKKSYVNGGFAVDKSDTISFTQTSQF
# Procedure: The FLIPR Membrane Potential (FMP) Assay
# HEK-293 cells stably expressing human EAAT3 were seeded at 55 000 cells/well in growth medium (DMEM glutamate free (Invitrogen 11960-044), 1% Pen Strep (10 ml/l GIBCO BRL No 15140-023), 10% FCS non dialysed heat inactivated, 5 mg/l puromycin) in poly-D-lysine treated 96-well black microtiter plates with clear-bottom. After 24 h, the growth medium was removed and 100 μl/well of Krebs buffer (140 mM NaCl, 4.7 mM KCl, 2.5 mM CaCl2, 1.2 mM MgCl2, 11 mM HEPES, 10 mM D-glucose, pH=7.4) added. The cells were then loaded by adding 100 μl/well FMP assay dye (FLIPR Membrane Potential assay reagent, Molecular Devices). The 96-well plates were then incubated at 37° C. for 1 h. The depolarization of the cells will cause more dye to enter in the cells, where it will bind to intracellular proteins and lipids and cause an increase in the fluorescence signal. Antagonist potency at human EAAT3 was determined by using L-glutamate as agonist at a concentration which gives 80% of the maximum response. The antagonists were applied 15 min before the application of the agonist L-glutamate. The assays were performed at room temperature and measurements done by using a Fluorometric Imaging Plate Reader (FLIPR, Molecular Devices) and filter #2. Responses were measured as peak increase in fluorescence minus basal (i.e. fluorescence without addition of L-glutamate). Kb was determined using the Cheng-Prusoff equation Kb=IC50/[1+(A/EC50)], where IC50 is the concentration of the antagonist producing 50% inhibition, A is the concentration of the agonist against which the IC50 is being determined (at EC80) and EC50 is the concentration of the agonist producing 50% […].
SMILES,Kb (human EAAT3) [nM],melting point [°C]
"CC(C)(C)NC(=O)c1cc(-c2ccc(F)c(F)c2)nc(-n2ccnc2C(C)(C)C)c1 [Example 26, N-tert-Butyl-2-(2-tert-butyl-imidazol-1-yl)-6-(3,4-difluorophenyl)-pyridine-4-carboxamide]",370,244
"Cc1ccc(-c2cc(C(=O)NC(C)(C)C)cc(-n3ccnc3C(C)(C)C)n2)cc1 [Example 27, N-tert-Butyl-2-(2-tert-butyl-imidazol-1-yl)-6-(4-methylphenyl)-pyridine-4-carboxamide]",110,232
"CC(C)(C)NC(=O)c1cc(-c2ccc(C3CC3)cc2)nc(-n2ccnc2C(C)(C)C)c1 [Example 28, N-tert-Butyl-2-(2-tert-butyl-imidazol-1-yl)-6-(4-cyclopropyl-phenyl)-pyridine-4-carboxamide]",670,226
"CC(C)(C)NC(=O)c1cc(-c2ccc(F)cc2)nc(-n2ccnc2CO)c1 [Example 14, N-tert-Butyl-2-(4-fluorophenyl)-6-[2-(hydroxymethyl)-imidazol-1-yl]-pyridine-4-carboxamide]",370,212
"CC(C)(C#N)NC(=O)c1cc(-c2ccc(Cl)cc2)nc(-n2ccnc2C(C)(C)C)c1 [Example 37, 2-(2-tert-Butylimidazol-1-yl)-6-(4-chlorophenyl)-N-(2-cyanopropan-2-yl)-pyridine-4-carboxamide]",96,
"CCc1nccn1-c1cc(C(=O)NC(C)(C)C)cc(-c2ccc(Cl)cc2)n1 [Example 11, N-tert-Butyl-2-(4-chlorophenyl)-6-(2-ethyl-imidazol-1-yl)-pyridine-4-carboxamide]",250,

# Other lines, results leading:
Kb (human EAAT3) [nM],melting point [°C],SMILES
240,235,"COc1ccc(-c2cc(C(=O)NC(C)(C)C)cc(-n3ccnc3C(C)(C)C)n2)cc1 [Example 31, N-tert-Butyl-2-(2-tert-butyl-imidazol-1-yl)-6-(4-methoxy-phenyl)-pyridine-4-carboxamide]"
260,225,"CC(C)(C)c1nccn1-c1cc(C(=O)NC(C)(C)C(F)(F)F)cc(-c2ccc(Cl)cc2)n1 [Example 25, 2-(2-tert-Butylimidazol-1-yl)-6-(4-chlorophenyl)-N-(1,1,1-trifluoro-2-methylpropan-2-yl)-pyridine-4-carboxamide]"
110,199,"CC(C)c1nccn1-c1cc(C(=O)NC(C)(C)C)cc(-c2ccc(F)cc2)n1 [Example 2, N-tert-Butyl-2-(4-fluorophenyl)-6-(2-propan-2-yl-imidazol-1-yl)-pyridine-4-carboxamide]"
290,245,"CC(C)(C)NC(=O)c1cc(-c2ccc(C#N)cc2)nc(-n2ccnc2C(C)(C)C)c1 [Example 32, N-tert-Butyl-2-(2-tert-butyl-imidazol-1-yl)-6-(4-cyano-phenyl)-pyridine-4-carboxamide]"
